“Also recorded” adds a separate entry of the source.

The test system of data set [1] is T4-2 cells. Nature of the data set: 3D lrECM (Matrigel) culture of T4-2 cells: reversion of malignant phenotype, polarity, colony size. It is filed as cell-based, human. As for the experimental part: (§1) For 3D lrECM culture, T4-2 cells were seeded at 21000 cells per cm^2 on top of Matrigel, overlaid with H14 medium containing 5% Matrigel (BD Biosciences, San Jose, Calif.), and treated with 80 nM AG1478, 20 μM TAPI-2 or the relevant vehicle controls.
(§2) Silencer™ siRNAs against TACE (Ambion, Austin, Tex.) were also transfected in according to the Reverse Transfection protocol of Invitrogen. siRNAs against the following TACE sense strand sequences were transfected either individually (100 nM) or as a pool (33.3 nM each): […]tt (SEQ ID NO: 2), GCAGCAt[…]tt (SEQ ID NO:3) and […]tt (SEQ ID NO: 4). For 3D culture assays, T4-2 cells were trypsinized post-transfection and plated as single cells in Matrigel. Knockdown was assessed by western blot from a parallel transfection 48 hrs post-transfection. Random siRNA sequence was used as a negative control.
Indirect immunofluorescence. Colonies were solubilized from […] culture by shaking in PBS/0.05M EDTA on ice for 30 mins, fixed in 4% paraformaldehyde, permeabilized, stained with anti-α6-integrin (Chemicon, Temecula, Calif.) and counterstained with DAPI.
Quantitation of colony size in the 3D lrECM culture was performed by image analysis. Representative images were captured using a digital camera attached to a phase contrast microscope. The high resolution digital images were then analyzed using NIH Image analysis software and the cross-sectional area of each colony was determined for many colonies. This process was hand-curated to ensure that aggregates of colonies were not measured as a single colony.

Data set [2] deals with T4-2 cells. Nature of the data set: Proliferation assay (WST) of T4-2 cells in 2D culture. It is filed as cell-based, human. The procedure: Proliferation assays. HMT3522 cells were seeded in 96 well plates and treated (in triplicate) as described in the figure legends. To determine relative growth, 0.1 volumes of WST cell proliferation analysis reagent (Roche, Indianapolis, Ind.) was added to the medium and its formazan metabolite was measured by absorbance at 460 nm.

The subject of data set [3] is T4-2 cells. Nature of the data set: ELISA of AREG and TGFα shed into conditioned medium of T4-2 cells. It is filed as cell-based, human. As to conditions: TAPI-2-treated T4-2 cells. As for the experimental part: as §2
(§3) ELISA. Equal numbers of cells were washed three times and allowed to condition medium for 90 minutes. The amount of AREG and TGFα accumulating in the medium was determined by using specific ELISA assays (R & D Systems, Minneapolis, Minn.) according to the manufacturer's instructions.
A general note: An ELISA detects its analyte on a solid surface through an enzyme-linked reagent.

Data set [4] deals with signaling kinases downstream of the EGFR. Kind of data set: Western blot of basal activity of signaling kinases downstream of the EGFR in T4-2 cells. It is filed as cell-based, human. To be noted: addition of TAPI-2. As for the experimental part:
Western blotting. Cells were lysed in 50 mM Tris.HCl pH 7.5, 150 mM NaCl, 0.5% NP40 supplemented with protease and phosphatase inhibitors (Calbiochem, San Diego, Calif.) and clarified by centrifugation. 50 μg of each sample was fractionated by SDS-PAGE, transferred to nitrocellulose membranes and probed with antibodies against the following proteins: phospho-MAPK, Total MAPK, phospho-p70S6-Kinase, (Cell Signaling Technology, MA). E-cadherin (BD Biosciences, CA) was used as a loading control. Blots were developed using Supersignal West Femto (Pierce, Rockland, Ill.). Images were captured using a Fluor Chem 8900 imager (Alpha Innotech, San Leandro, Calif.).

For data set [5], the system named is T4-2 cells. Kind of data set: Relative proliferation of T4-2 cells with AG 1478 with or without TAPI-2 (sensitization, FIG. 5). As to conditions: 10 μM TAPI-2; shift of AG 1478 proliferation curve. It counts as cell-based, human. As for the experimental part: FIG. 5. […] T4-2 cells were allowed to adhere to 48 well plates. Drugs were added at the indicated concentrations. Conditions were analyzed in triplicate. For comparison, all data were normalized to the 100%.
(FIG. 5) In this experiment, T4-2 cells were allowed to adhere to 48 well plates. Drugs, AG 1478 and TAPI-2, were added at various concentrations of 0.001 μM, 0.01 μM, 0.1 μM, 1 μM, 10 μM and 100 μM. Conditions were analyzed in triplicate. For comparison, all data were normalized to the 100%.

Data set [6] deals with T4-2 cells. Nature of the data set: Cytotoxicity of TAPI-2 at the concentration used. It is filed as cell-based, human. As to conditions: data not shown.
Data set [7] has as its system S1 cells. Nature of the data set: Acinar morphogenesis of S1 cells in the presence of soluble EGF. It counts as cell-based, human. As to conditions: data not shown. The procedure: Cell culture All reagents were purchased from SIGMA (St. Louis, Mo.) except where otherwise noted. HMT3522 cells were cultivated on 2D and 3D substrata in H14 medium, a 50:50 mix of DMEM/F12 (UCSF Cell culture Facility, San Francisco, Calif.) supplemented with 5 μg/ml prolactin, 250 ng/ml insulin, 1.4×10^−6 M hydrocortisone, 10^−10 M β-estradiol, 2.6 ng/ml sodium selenite and 10 μg/ml transferrin. S1 cells were additionally supplemented with 10 ng/ml EGF. In various experiments, cells were supplemented with AREG, TACE, TGFα. In all cases, AREG and TGFα were used at the same molar concentration as EGF ([…]).

Data set [8] has as its system T4-2 cells. Nature of the data set: ELISA of EGFR ligands in conditioned medium of T4-2 3D lrECM cultures. It is filed as cell-based, human. As to conditions: TAPI-2 treatment as printed in legend. The procedure: as §2, §3
Data set [9] relates to T4-2 cells expressing AREGΔTM. Nature of the data set: 3D culture of T4-2 cells expressing soluble AREG (AREGΔTM): colony size and morphology. It is filed as cell-based, human. As to conditions: T4-2 cells producing soluble AREG. As for the experimental part:
as §1
(§4) Amphotropic retroviruses were generated by transfection (Lipofectamine; Invitrogen, Carlsbad, Calif.) of the Phoenix packaging cell line (a gift of Dr. Gary Nolan, Stanford) with pBM-IRES-Puro or derivatives containing the AREG or TGFα open reading frames. Two million phoenix cells per 6 cm dish were plated the day prior to transfection and transfected with 2 μg of the appropriate retroviral construct. Retrovirus-containing culture medium was harvested after 48 hrs, supplemented with polybrene to 5 μg/ml and added to HMT3522 cells at 30-50% confluence. Pools of stable infectants were selected in 1 μg/ml puromycin.
(§5) Cloning of pro-AREG and pro-TGFα. The open reading frames of these genes were amplified by PCR from T4-2 cDNA. […]
(§6) Quantitation of colony size in the 3D lrECM culture was performed by image analysis. […] The high resolution digital images were then analyzed using NIH Image analysis software and the cross-sectional area of each colony was determined for many colonies. This process was hand-curated to ensure that aggregates of colonies were not measured as a single colony.

In data set [10] the test system is T4-2 cells expressing TGFαΔTM. Kind of data set: 3D culture of T4-2 cells expressing soluble TGFα (TGFαΔTM): colony size and morphology. It is filed as cell-based, human. As to conditions: T4-2 cells producing soluble TGFα. As for the experimental part:
as §1, §4, §5, §6

Data set [11] deals with MCF-7. Nature of the data set: ELISA of AREG shedding from MCF-7 cells. It is filed as cell-based, human. To be noted: MCF-7, 20 μM TAPI-2, 90 minutes. The procedure: (§7) FIG. 8. Suppression of growth factor shedding by TAPI-2 in a panel of breast cancer cell lines. A: Three AREG-expressing breast cancer cell lines were identified. Equal number of cells were treated with 20 μM TAPI-2 or vehicle for 90 minutes and AREG shedding was quantified by ELISA. B: Two breast cancer cell lines expressing TGFα were identified and treated as described in (A). TAPI-2 suppresses TGFα shedding.
as §3

Data set [12] relates to HCC1500. Nature of the data set: ELISA of AREG and TGFα shedding from HCC1500 cells. It counts as cell-based, human. To be noted: HCC1500, 20 μM TAPI-2, 90 minutes. The procedure:
as §7, §3

Data set [13] deals with ZR75B. Kind of data set: ELISA of AREG shedding from ZR75B cells. It counts as cell-based, human. To be noted: 20 μM TAPI-2, 90 minutes. The procedure: as §7, §3
Data set [14] concerns MDA-MB-468. Nature of the data set: ELISA of TGFα shedding from MDA-MB-468 cells. It counts as cell-based, human. To be noted: MDA-MB-468, 20 μM TAPI-2, 90 minutes. As for the experimental part:
as §7, §3

For data set [15], the target named is TACE (Homo sapiens, UniProt P78536). As to conditions: cited from earlier work.
Data set [16] relates to LPS-stimulated human peripheral blood mononuclear cells (PBMC). As to conditions: cited from earlier work.

Sequence of TACE (P78536 215-824): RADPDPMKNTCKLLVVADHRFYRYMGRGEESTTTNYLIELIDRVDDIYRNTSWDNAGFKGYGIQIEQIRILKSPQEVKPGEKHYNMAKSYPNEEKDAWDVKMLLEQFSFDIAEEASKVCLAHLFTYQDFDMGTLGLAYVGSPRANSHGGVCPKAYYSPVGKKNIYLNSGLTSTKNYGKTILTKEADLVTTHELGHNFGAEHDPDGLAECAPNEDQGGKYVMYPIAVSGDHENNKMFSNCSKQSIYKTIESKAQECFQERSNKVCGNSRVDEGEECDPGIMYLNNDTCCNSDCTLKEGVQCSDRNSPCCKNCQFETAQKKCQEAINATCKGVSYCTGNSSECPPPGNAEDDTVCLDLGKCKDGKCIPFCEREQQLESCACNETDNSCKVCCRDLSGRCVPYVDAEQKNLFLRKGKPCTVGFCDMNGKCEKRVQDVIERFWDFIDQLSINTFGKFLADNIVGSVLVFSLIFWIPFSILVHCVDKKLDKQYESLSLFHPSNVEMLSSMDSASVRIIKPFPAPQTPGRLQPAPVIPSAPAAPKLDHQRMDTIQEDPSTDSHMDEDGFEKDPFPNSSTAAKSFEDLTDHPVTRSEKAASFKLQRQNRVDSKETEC

As to `CC(C)C[C@H](CC(=O)NO)C(=O)N[C@H](C(=O)N[C@@H](C)C(=O)NCCN)C(C)(C)C` [TAPI-2, N—(R)-[2-(Hydroxyaminocarbonyl)methyl]-4-methylpentanoyl-L-t-butyl-alanyl-L-alanine, 2-aminoethyl Amide], the “restoration of epithelial polarity (basal localization of α6-integrin)” value in data set [1] (3D culture, TAPI-2 vs vehicle) was “restoration of epithelial polarity”. In addition, the “colony size (cross-sectional area) vs vehicle” value in data set [1] (3D culture, four days, p<0.001) is “significantly smaller than those formed by cells treated with vehicle alone; also recorded: significantly different from controls”. In addition, in data set [1] (3D lrECM culture, 80 nM AG1478 or 20 μM TAPI-2 vs vehicle), the “reversion of the malignant phenotype of T4-2 cells” value is listed as “resulted in a reversion of the malignant phenotype”. Moreover, the “TAPI-2-induced reduction of T4-2 proliferation on addition of EGF” value in [2] (2D culture, soluble/exogenous EGF added) was “overcome by addition of exogenous EGF; also recorded: completely overcome by addition of soluble EGF”. Also, the “proliferation of T4-2 cells” value in [2] (2D cultures, vs 0 μM TAPI-2) is on record as “dose-dependent decrease in proliferation; also recorded: dose-dependent reduction in T4-2 cell proliferation”. Besides, the “shedding of AREG (ELISA of CM)” value in data set [3] is “suppresses the shedding of both AREG and TGFα”. For the same compound, in data set [3], the “shedding of TGFα (ELISA of CM)” value was “suppresses the shedding of both AREG and TGFα”. Further, in [4], the “basal activities of signaling kinases downstream of the EGFR” value was “significantly suppressed”. Besides, in data set [5], the “sensitization of T4-2 cells to small molecule EGFR inhibitor (AG1478)” value is recorded as “sensitizes T4-2 cells to the effect of the EGFR inhibitor, AG1478; also recorded: four-fold sensitization”. For the same compound, the cytotoxicity result in data set [6] is “not cytotoxic at the concentration used”. Further, the “interference with normal acinar morphogenesis of S1 cells” value in data set [7] is recorded as “nor did it interfere with the ability of S1 cells to execute normal acinar morphogenesis”. Further, the “levels of shed ligands in conditioned medium (FIG. 6C)” value in data set [8] is given as “reduced”. In addition, the “response to TAPI-2 by criteria of colony size and morphology” value in data set [9] and in data set [10] was “completely resistant to TAPI-2” each time. The AREG shedding entry in [11], in [12] and in [13] was “significantly reduced ligand shedding” each time. Besides, the TGFα shedding entry in [12] and in [14] was “significantly reduced ligand shedding” each time.
As to “TRWLVYFSRPYLVAT (synthetic peptide shown to inhibit TACE activity)”, the “binding to TACE” value in data set [15] is on record as “bind to TACE”. Further, in data set [16], the TNF-alpha release entry is listed as “inhibit the TNF-alpha release”.

The values above are taken from patent US20090274626A1, “TARGETING TNF-alpha CONVERTING ENZYME(TACE)- DEPENDENT GROWTH FACTOR SHEDDING IN CANCER THERAPY” (The Regents of the University of California, priority 2005, published 2009).
